Consider nine compounds from patent publication US11787825B2 (priority 2021, dated 2023).

A word on the solubility: it is how much of the substance goes into solution per volume. Higher therefore signals much dissolved substance.

Converted amounts (≈) assume the structure as drawn. Marks after values point to notes of the source that are not given here.

A short description of one data set: physchem. The conditions noted are these: 25 °C, thermodynamic from solid.
For data set [1] the following is noted: 1.0% DMSO, 24-hour incubation at ambient temperature, maximum theoretical compound concentration 100 μM; for pH 2 solubility: 0.1N HCL; for pH 7 solubility: 1×PBS buffer (pH 7.4).
For data set [2] the following is noted: Beagle, in vivo, po; for Dog F % (suspension): pH 2.
Setting [3] is: fasted state simulated intestinal fluid (FaSSIF), fassif.
[4] abbreviates: fed state simulated intestinal fluid (FeSSIF), fessif.

Turning to `CC(C)(C#Cc1ccc(-c2ccc(Cl)c3c(N(C(=O)CCC(=O)OCOP(=O)(O)O)S(C)(=O)=O)nn(CC(F)(F)F)c23)c([C@H](Cc2cc(F)cc(F)c2)NC(=O)Cn2nc(C(F)(F)F)c3c2C(F)(F)[C@@H]2C[C@H]32)n1)S(C)(=O)=O` [Compound 28, (phosphonooxy)methyl 4-(N-(4-chloro-7-(2-((S)-1-(2-((3bS,4aR)-5,5-difluoro-3-(trifluoromethyl)-3b,4,4a,5-tetrahydro-1H-cyclopropa[3,4]cyclopenta[1,2-c]pyrazol-1-yl)acetamido)-2-(3,5-difluorophenyl)ethyl)-6-(3-methyl-3-(methylsulfonyl)but-1-yn-1-yl)pyridin-3-yl)-1-(2,2,2-trifluoroethyl)-1H-indazol-3-yl)methylsulfonamido)-4-oxobutanoate], the results for the solubility in the data set “physchem” (setting [3]) and in the data set “physchem” (setting [4]) were 555 µg/mL (≈ 471 µM) and 319 µg/mL (≈ 271 µM), respectively. The “pH 2 solubility” value in data set [1] turned out to be 1 μM. Also, the “pH 7 solubility” value in data set [1] came out at 86 μM. The “Dog F % (solution)” value in data set [2] is 51^b %.

For `CC(C)(C#Cc1ccc(-c2ccc(Cl)c3c(N(C(=O)CCCN(CC(=O)O)C(=O)OCOP(=O)(O)O)S(C)(=O)=O)nn(CC(F)(F)F)c23)c([C@H](Cc2cc(F)cc(F)c2)NC(=O)Cn2nc(C(F)(F)F)c3c2C(F)(F)[C@@H]2C[C@H]32)n1)S(C)(=O)=O` [Compound 30, N-(4-(N-(4-chloro-7-(2-((S)-1-(2-((3bS,4aR)-5,5-difluoro-3-(trifluoromethyl)-3b,4,4a,5-tetrahydro-1H-cyclopropa[3,4]cyclopenta[1,2-c]pyrazol-1-yl)acetamido)-2-(3,5-difluorophenyl)ethyl)-6-(3-methyl-3-(methylsulfonyl)but-1-yn-1-yl)pyridin-3-yl)-1-(2,2,2-trifluoroethyl)-1H-indazol-3-yl)methylsulfonamido)-4-oxobutyl)-N-(((phosphonooxy)methoxy)carbonyl)glycine], the solubility in the data set “physchem” (setting [3]) was > 1100 µg/mL. In the data set “physchem” (setting [4]), this compound displayed a solubility of 5830 µg/mL (≈ 4600 µM). Besides, in data set [1], the “pH 2 solubility” value is 1 μM and the “pH 7 solubility” value is given as 100 μM. Moreover, in data set [2], the “Dog F % (solution)” value was 18^c % and the “Dog F % (suspension)” value is reported as 18%.

Compound `CC(C)(C#Cc1ccc(-c2ccc(Cl)c3c(N(C(=O)CCCN(CCC(=O)O)C(=O)OCOP(=O)(O)O)S(C)(=O)=O)nn(CC(F)(F)F)c23)c([C@H](Cc2cc(F)cc(F)c2)NC(=O)Cn2nc(C(F)(F)F)c3c2C(F)(F)[C@@H]2C[C@H]32)n1)S(C)(=O)=O` [Compound 31, 3-((4-(N-(4-chloro-7-(2-((S)-1-(2-((3bS,4aR)-5,5-difluoro-3-(trifluoromethyl)-3b,4,4a,5-tetrahydro-1H-cyclopropa[3,4]cyclopenta[1,2-c]pyrazol-1-yl)acetamido)-2-(3,5-difluorophenyl)ethyl)-6-(3-methyl-3-(methylsulfonyl)but-1-yn-1-yl)pyridin-3-yl)-1-(2,2,2-trifluoroethyl)-1H-indazol-3-yl)methylsulfonamido)-4-oxobutyl)(((phosphonooxy)methoxy)carbonyl)amino)propanoic acid] had a solubility in “physchem” (setting [3]) of 2930 µg/mL (≈ 2290 µM). In “physchem” (setting [4]), this compound had a solubility of 902 µg/mL (≈ 705 µM). In data set [1], the “pH 2 solubility” value turned out to be 1 μM and the “pH 7 solubility” value came out at 79 μM. Moreover, the “Dog F % (suspension)” value in data set [2] was determined as 15%.

Turning to `CN(CCCC(=O)N(c1nn(CC(F)(F)F)c2c(-c3ccc(C#CC(C)(C)S(C)(=O)=O)nc3[C@H](Cc3cc(F)cc(F)c3)NC(=O)Cn3nc(C(F)(F)F)c4c3C(F)(F)[C@@H]3C[C@H]43)ccc(Cl)c12)S(C)(=O)=O)C(=O)OCOP(=O)(O)O` [Compound 32, (phosphonooxy)methyl (4-(N-(4-chloro-7-(2-((S)-1-(2-((3bS,4aR)-5,5-difluoro-3-(trifluoromethyl)-3b,4,4a,5-tetrahydro-111-cyclopropa[3,4]cyclopenta [1,2-c]pyrazol-1-yl)acetamido)-2-(3,5-difluorophenyl)ethyl)-6-(3-methyl-3-(methylsulfonyl)but-1-yn-1-yl)pyridin-3-yl)-1-(2,2,2-trifluoroethyl)-1H-indazol-3-yl)methylsulfonamido)-4-oxobutyl)(methyl)carbamate], the solubility in “physchem” (setting [3]) is 194 µg/mL (≈ 159 µM); in the data set “physchem” (setting [4]), 210 µg/mL (≈ 172 µM). Besides, the “pH 2 solubility” value in data set [1] amounted to 1 μM. Besides, the “pH 7 solubility” value in data set [1] is 100 μM. For the same compound, in data set [2], the “Dog F % (solution)” value is on record as 31^b %.

On to `CC(C)(C#Cc1ccc(-c2ccc(Cl)c3c(N(C(=O)CCCNC(=O)OCOP(=O)(O)O)S(C)(=O)=O)nn(CC(F)(F)F)c23)c([C@H](Cc2cc(F)cc(F)c2)NC(=O)Cn2nc(C(F)(F)F)c3c2C(F)(F)[C@@H]2C[C@H]32)n1)S(C)(=O)=O` [Compound 33, (phosphonooxy)methyl (4-(N-(4-chloro-7-(2-((S)-1-(2-((3bS,4aR)-5,5-difluoro-3-(trifluoromethyl)-3b,4,4a,5-tetrahydro-111-cyclopropa[3,4]cyclopenta[1,2-c]pyrazol-1-yl)acetamido)-2-(3,5-difluorophenyl)ethyl)-6-(3-methyl-3-(methylsulfonyl)but-1-yn-1-yl)pyridin-3-yl)-1-(2,2,2-trifluoroethyl)-1H-indazol-3-yl)methylsulfonamido)-4-oxobutyl)carbamate], for which the solubility in the data set “physchem” (setting [3]) was 326 µg/mL (≈ 270 µM). In the data set “physchem” (setting [4]), this compound yielded a solubility of 300 µg/mL (≈ 248 µM). Also, in data set [1], the “pH 2 solubility” value stood at 1 μM and the “pH 7 solubility” value is on record as 75 μM. In data set [2], the “Dog F % (solution)” value was 33^b % and the “Dog F % (suspension)” value is given as 17%.

The compound `CC(C)(CNC(=O)OCOP(=O)(O)O)CC(=O)N(c1nn(CC(F)(F)F)c2c(-c3ccc(C#CC(C)(C)S(C)(=O)=O)nc3[C@H](Cc3cc(F)cc(F)c3)NC(=O)Cn3nc(C(F)(F)F)c4c3C(F)(F)[C@@H]3C[C@H]43)ccc(Cl)c12)S(C)(=O)=O` [Compound 41, (phosphonooxy)methyl (4-(N-(4-chloro-7-(2-((S)-1-(2-((3bS,4aR)-5,5-difluoro-3-(trifluoromethyl)-3b,4,4a,5-tetrahydro-111-cyclopropa[3,4]cyclopenta[1,2-c]pyrazol-1-yl)acetamido)-2-(3,5-difluorophenyl)ethyl)-6-(3-methyl-3-(methylsulfonyl)but-1-yn-1-yl)pyridin-3-yl)-1-(2,2,2-trifluoroethyl)-1H-indazol-3-yl)methylsulfonamido)-2,2-dimethyl-4-oxobutyl)carbamate] gave a solubility in the data set “physchem” (setting [3]) of 1140 µg/mL (≈ 927 µM). Also, in “physchem” (setting [4]), the concentration in solution (solubility) was 440 µg/mL (≈ 356 µM). In addition, in data set [1], the “pH 2 solubility” value is reported as 1 μM and the “pH 7 solubility” value is given as 100 μM. Moreover, the “Dog F % (suspension)” value in data set [2] is recorded as 4%.

For `Cc1cc(CC(=O)O)cc(OP(=O)(O)O)c1C(C)(C)CC(=O)N(c1nn(CC(F)(F)F)c2c(-c3ccc(C#CC(C)(C)S(C)(=O)=O)nc3[C@H](Cc3cc(F)cc(F)c3)NC(=O)Cn3nc(C(F)(F)F)c4c3C(F)(F)[C@@H]3C[C@H]43)ccc(Cl)c12)S(C)(=O)=O` [Compound 47, 2-(4-(4-(N-(4-chloro-7-(2-((S)-1-(2-((3bS,4aR)-5,5-difluoro (trifluoromethyl)-3b,4,4a,5-tetrahydro-1H-cyclopropa[3,4]cyclopenta[1,2-c]pyrazolyl)acetamido)-2-(3,5-difluorophenyl)ethyl)-6-(3-methyl-3-(methylsulfonyl)but-1-ynyl)pyridin-3-yl)-1-(2,2,2-trifluoroethyl)-1H-indazol-3-yl)methylsulfonamido)-2-methyloxobutan-2-yl)-3-methyl-5-(phosphonooxy)phenyl)acetic acid], the solubility in the data set “physchem” (fassif) was 1420 µg/mL (≈ 1100 µM); in “physchem” (fessif) it was 226 µg/mL (≈ 174 µM). The “Dog F % (suspension)” value in data set [2] was determined as 7%.

In the case of `Cc1cc(C)c(C(C)(C)CC(=O)N(c2nn(CC(F)(F)F)c3c(-c4ccc(C#CC(C)(C)S(C)(=O)=O)nc4[C@H](Cc4cc(F)cc(F)c4)NC(=O)Cn4nc(C(F)(F)F)c5c4C(F)(F)[C@@H]4C[C@H]54)ccc(Cl)c23)S(C)(=O)=O)c(OP(=O)(O)O)c1` [Compound 48, 2-(4-(N-(4-chloro-7-(2-((S)-1-(2-03bS,4aR)-5,5-difluoro (trifluoromethyl)-3b,4,4a,5-tetrahydro-1H-cyclopropa[3,4]cyclopenta[1,2-c]pyrazolyl)acetamido)-2-(3,5-difluorophenyl)ethyl)-6-(3-methyl-3-(methylsulfonyl)but-1-ynyl)pyridin-3-yl)-1-(2,2,2-trifluoroethyl)-1H-indazol-3-yl)methylsulfonamido)-2-methyl oxobutan-2-yl)-3,5-dimethylphenyl dihydrogen phosphate], the solubility came out at 777 µg/mL in “physchem” (fassif) and 948 µg/mL in the data set “physchem” (fessif). Also, the “Dog F % (solution)” value in data set [2] was 60^b %. For the same compound, the “Dog F % (suspension)” value in data set [2] was found to be 16%.

With `Cc1cc(CP(=O)(O)O)c(C(C)(C)CC(=O)N(c2nn(CC(F)(F)F)c3c(-c4ccc(C#CC(C)(C)S(C)(=O)=O)nc4[C@H](Cc4cc(F)cc(F)c4)NC(=O)Cn4nc(C(F)(F)F)c5c4C(F)(F)[C@@H]4C[C@H]54)ccc(Cl)c23)S(C)(=O)=O)c(OP(=O)(O)O)c1` [Compound 55, (2-(4-(N-(4-chloro-7-(2-((S)-1-(2-((3bS,4aR)-5,5-difluoro-3-(trifluoromethyl)-3b,4,4a,5-tetrahydro-1H-cyclopropa[3,4]cyclopenta[1,2-c]pyrazol-1-yl)acetamido)-2-(3,5-difluorophenyl)ethyl)-6-(3-methyl-3-(methylsulfonyl)but-1-yn-1-yl)pyridin-3-yl)-1-(2,2,2-trifluoroethyl)-1H-indazol-3-yl)methylsulfonamido)-2-methyl-4-oxobutan-2-yl)-5-methyl-3-(phosphonooxy)benzyl)phosphonic acid], in the data set “physchem” (fassif), the solubility was > 10000 µg/mL. Also, the “Dog F % (solution)” value in data set [2] is reported as 33 ^c %.
